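Briefly, cells in 96-well plates were exposed to five compound concentrations for 48 h, and endpoints were estimated by linear interpolation. TGI marks complete inhibition of growth.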
Columns and labels:
Test in all cases: growth of human tumour cells (NCI), 48 h
786-0 renal = tested on: 786-0 renal
A498 renal = tested on: A498 renal
A549 NSCLC = tested on: A549 NSCLC
ACHN renal = tested on: ACHN renal
BT-549 breast = tested on: BT-549 breast
CAKI-1 renal = tested on: CAKI-1 renal
CCRF-CEM leukemia = tested on: CCRF-CEM leukemia
COLO 205 colon = tested on: COLO 205 colon
DLD-1 colon = tested on: DLD-1 colon
DMS 114 small cell lung = tested on: DMS 114 small cell lung
DMS 273 small cell lung = tested on: DMS 273 small cell lung
DU-145 prostate = tested on: DU-145 prostate
EKVX NSCLC = tested on: EKVX NSCLC
HCC-2998 colon = tested on: HCC-2998 colon
HCT-116 colon = tested on: HCT-116 colon
HCT-15 colon = tested on: HCT-15 colon
HL-60(TB) leukemia = tested on: HL-60(TB) leukemia
HOP-18 NSCLC = tested on: HOP-18 NSCLC
HOP-62 NSCLC = tested on: HOP-62 NSCLC
HOP-92 NSCLC = tested on: HOP-92 NSCLC
HS 578T breast = tested on: HS 578T breast
HT29 colon = tested on: HT29 colon
IGROV1 ovarian = tested on: IGROV1 ovarian
K-562 leukemia = tested on: K-562 leukemia
KM12 colon = tested on: KM12 colon
KM20L2 colon = tested on: KM20L2 colon
LOX IMVI melanoma = tested on: LOX IMVI melanoma
LXFL 529 NSCLC = tested on: LXFL 529 NSCLC
M14 melanoma = tested on: M14 melanoma
M19-MEL melanoma = tested on: M19-MEL melanoma
MALME-3M melanoma = tested on: MALME-3M melanoma
MCF7 breast = tested on: MCF7 breast
MDA-MB-231 breast = tested on: MDA-MB-231 breast
MDA-MB-435 = tested on: MDA-MB-435
MDA-N = tested on: MDA-N
MOLT-4 leukemia = tested on: MOLT-4 leukemia
NCI-H226 lung = tested on: NCI-H226 lung
NCI-H23 lung = tested on: NCI-H23 lung
NCI-H460 lung = tested on: NCI-H460 lung
NCI-H522 lung = tested on: NCI-H522 lung
NCI/ADR-RES ovarian = tested on: NCI/ADR-RES ovarian
OVCAR-3 ovarian = tested on: OVCAR-3 ovarian
OVCAR-4 ovarian = tested on: OVCAR-4 ovarian
OVCAR-5 ovarian = tested on: OVCAR-5 ovarian
OVCAR-8 ovarian = tested on: OVCAR-8 ovarian
PC-3 prostate = tested on: PC-3 prostate
RPMI-8226 leukemia = tested on: RPMI-8226 leukemia
RXF 393 renal = tested on: RXF 393 renal
SF-268 CNS = tested on: SF-268 CNS
SF-295 CNS = tested on: SF-295 CNS
SF-539 CNS = tested on: SF-539 CNS
SK-MEL-2 melanoma = tested on: SK-MEL-2 melanoma
SK-MEL-28 melanoma = tested on: SK-MEL-28 melanoma
SK-MEL-5 melanoma = tested on: SK-MEL-5 melanoma
SK-OV-3 ovarian = tested on: SK-OV-3 ovarian
SN12C renal = tested on: SN12C renal
SNB-19 CNS = tested on: SNB-19 CNS
SNB-75 CNS = tested on: SNB-75 CNS
SNB-78 CNS = tested on: SNB-78 CNS
SR leukemia = tested on: SR leukemia
SW-620 colon = tested on: SW-620 colon
T-47D breast = tested on: T-47D breast
TK-10 renal = tested on: TK-10 renal
U251 CNS = tested on: U251 CNS
UACC-257 melanoma = tested on: UACC-257 melanoma
UACC-62 melanoma = tested on: UACC-62 melanoma
UO-31 renal = tested on: UO-31 renal
XF 498 CNS = tested on: XF 498 CNS

## CCCCCCCCCCCCCCCC(=O)Nc1ccn(C2OC(CO)C(O)C2O)c(=O)n1 (stereo unspecified)
786-0 renal
  TGI: > 100 µM
A498 renal
  TGI: > 100 µM
A549 NSCLC
  TGI: > 100 µM
ACHN renal
  TGI: 99.4 µM
BT-549 breast
  TGI: > 100 µM
CAKI-1 renal
  TGI: > 100 µM
CCRF-CEM leukemia
  TGI: 7.28 µM
COLO 205 colon
  TGI: > 100 µM
DLD-1 colon
  TGI: > 100 µM
DMS 114 small cell lung
  TGI: > 100 µM
DMS 273 small cell lung
  TGI: > 100 µM
DU-145 prostate
  TGI: > 50.3 µM
EKVX NSCLC
  TGI: > 100 µM
HCC-2998 colon
  TGI: > 100 µM
HCT-116 colon
  TGI: > 100 µM
HCT-15 colon
  TGI: > 100 µM
HL-60(TB) leukemia
  TGI: 43.3 µM
HOP-18 NSCLC
  TGI: > 100 µM
HOP-62 NSCLC
  TGI: > 88 µM
HOP-92 NSCLC
  TGI: 85.5 µM
HS 578T breast
  TGI: > 91.4 µM
HT29 colon
  TGI: > 100 µM
IGROV1 ovarian
  TGI: > 100 µM
K-562 leukemia
  TGI: > 100 µM
KM12 colon
  TGI: > 100 µM
KM20L2 colon
  TGI: > 100 µM
LOX IMVI melanoma
  TGI: 38 µM
LXFL 529 NSCLC
  TGI: > 100 µM
M14 melanoma
  TGI: 32.5 µM
M19-MEL melanoma
  TGI: > 100 µM
MALME-3M melanoma
  TGI: > 100 µM
MCF7 breast
  TGI: > 100 µM
MDA-MB-231 breast
  TGI: > 100 µM
MDA-MB-435
  TGI: > 100 µM
MDA-N
  TGI: > 100 µM
MOLT-4 leukemia
  TGI: 17.3 µM
NCI-H226 lung
  TGI: > 100 µM
NCI-H23 lung
  TGI: 81.5 µM
NCI-H460 lung
  TGI: > 65.6 µM
NCI-H522 lung
  TGI: > 79.7 µM
NCI/ADR-RES ovarian
  TGI: > 100 µM
OVCAR-3 ovarian
  TGI: > 100 µM
OVCAR-4 ovarian
  TGI: > 100 µM
OVCAR-5 ovarian
  TGI: > 100 µM
OVCAR-8 ovarian
  TGI: > 100 µM
PC-3 prostate
  TGI: > 100 µM
RPMI-8226 leukemia
  TGI: > 100 µM
RXF 393 renal
  TGI: > 97.2 µM
SF-268 CNS
  TGI: > 100 µM
SF-295 CNS
  TGI: > 100 µM
SF-539 CNS
  TGI: > 100 µM
SK-MEL-2 melanoma
  TGI: > 100 µM
SK-MEL-28 melanoma
  TGI: > 100 µM
SK-MEL-5 melanoma
  TGI: > 100 µM
SK-OV-3 ovarian
  TGI: > 100 µM
SN12C renal
  TGI: > 100 µM
SNB-19 CNS
  TGI: > 80.8 µM
SNB-75 CNS
  TGI: > 90.4 µM
SNB-78 CNS
  TGI: > 100 µM
SR leukemia
  TGI: 62.7 µM
SW-620 colon
  TGI: > 100 µM
T-47D breast
  TGI: > 100 µM
TK-10 renal
  TGI: > 100 µM
U251 CNS
  TGI: > 100 µM
UACC-257 melanoma
  TGI: > 100 µM
UACC-62 melanoma
  TGI: > 100 µM
UO-31 renal
  TGI: > 43.9 µM

## CN(C)C(=S)NC(=S)Nc1ccc2ccccc2c1
786-0 renal
  TGI: > 64.8 µM
A498 renal
  TGI: 48.3 µM
A549 NSCLC
  TGI: > 31.5 µM
ACHN renal
  TGI: > 83 µM
BT-549 breast
  TGI: 53.9 µM
CAKI-1 renal
  TGI: 65.3 µM
CCRF-CEM leukemia
  TGI: 10.5 µM
COLO 205 colon
  TGI: 39 µM
DMS 273 small cell lung
  TGI: 14.1 µM
DU-145 prostate
  TGI: 77.9 µM
EKVX NSCLC
  TGI: 51.1 µM
HCC-2998 colon
  TGI: 36.6 µM
HCT-116 colon
  TGI: 27 µM
HCT-15 colon
  TGI: 59.9 µM
HL-60(TB) leukemia
  TGI: 51.7 µM
HOP-62 NSCLC
  TGI: 46.2 µM
HOP-92 NSCLC
  TGI: 48.1 µM
HS 578T breast
  TGI: 97.8 µM
HT29 colon
  TGI: 25.3 µM
IGROV1 ovarian
  TGI: 34.6 µM
K-562 leukemia
  TGI: 23.3 µM
KM12 colon
  TGI: 37.6 µM
KM20L2 colon
  TGI: 23.7 µM
LOX IMVI melanoma
  TGI: 19.6 µM
LXFL 529 NSCLC
  TGI: 21.9 µM
M14 melanoma
  TGI: 50.4 µM
MALME-3M melanoma
  TGI: 35.1 µM
MCF7 breast
  TGI: 37.1 µM
MDA-MB-231 breast
  TGI: 48.1 µM
MDA-MB-435
  TGI: 68 µM
MDA-N
  TGI: 42.1 µM
MOLT-4 leukemia
  TGI: 34.4 µM
NCI-H226 lung
  TGI: 31.5 µM
NCI-H23 lung
  TGI: 43.9 µM
NCI-H460 lung
  TGI: 22.4 µM
NCI-H522 lung
  TGI: 32 µM
NCI/ADR-RES ovarian
  TGI: 59.6 µM
OVCAR-3 ovarian
  TGI: 57.8 µM
OVCAR-4 ovarian
  TGI: > 100 µM
OVCAR-5 ovarian
  TGI: 60.1 µM
OVCAR-8 ovarian
  TGI: 68.8 µM
PC-3 prostate
  TGI: 38.3 µM
RPMI-8226 leukemia
  TGI: 45 µM
RXF 393 renal
  TGI: 65.8 µM
SF-268 CNS
  TGI: 47.3 µM
SF-295 CNS
  TGI: 18.8 µM
SF-539 CNS
  TGI: 31.6 µM
SK-MEL-2 melanoma
  TGI: 41.6 µM
SK-MEL-28 melanoma
  TGI: 40.3 µM
SK-MEL-5 melanoma
  TGI: 25 µM
SK-OV-3 ovarian
  TGI: 55.3 µM
SN12C renal
  TGI: 31.9 µM
SNB-19 CNS
  TGI: > 72.1 µM
SNB-75 CNS
  TGI: 62.5 µM
SNB-78 CNS
  TGI: 77.5 µM
SR leukemia
  TGI: 35.8 µM
SW-620 colon
  TGI: > 75.2 µM
T-47D breast
  TGI: 46 µM
TK-10 renal
  TGI: > 89.4 µM
U251 CNS
  TGI: > 46.9 µM
UACC-257 melanoma
  TGI: 24.2 µM
UACC-62 melanoma
  TGI: 26.9 µM
UO-31 renal
  TGI: 48 µM
XF 498 CNS
  TGI: 33.3 µM

From PubChem BioAssay (NCI)
